Each structure is given as a SMILES string.

As a reminder, the IC50 is the concentration at which inhibition is half-maximal.

One assay deals with human recombinant ATX (Homo sapiens, UniProt Q13822). As to the kind of experiment: Enzyme inhibition test (choline release from LPC, Amplex UltraRed fluorescence). In kind it is biochemical. Particulars: 200 μM LPC substrate, 1 hr at room temperature, read-out: Experimental Example 1 human ATX IC50. In outline:
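Recombinant human ATX (enzyme solution 0.4 ng/µL) acted on a mix of 200 µM LPC, Amplex UltraRed, peroxidase and choline oxidase in Tris pH 8.0 buffer with BSA and 0.0025% Triton X-100, 1 h at room temperature. Choline was read by fluorescence (Ex 525/Em 598 nm) against a choline chloride standard. IC50 came from % inhibition relative to enzyme-free and inhibitor-free controls.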

Another assay addresses T1, ATX activity in plasma (Rattus norvegicus, UniProt Q64610).
T1 construct: from tissue; host or cells: plasma of male Wistar rats after oral dosing
As to the kind of experiment: Measurement of ATX activity in plasma (ex vivo), rat single administration test. Also on record: species or system male Wistar rat. As for the experimental part: [Measurement of ATX Activity in Plasma (Ex Vivo)]
A compound administration solution prepared by wet pulverization in a mixer mill (type: MM400) for 10 min and adjusting to a given concentration with 0.5% aqueous carboxymethylcellulose solution was orally administered to male Wistar rat (5-week-old when used) at 5 mL/kg. Blood samples were collected from the cervical vein over time at 8 to 24 hr after administration. The blood was heparin-treated using a micro blood collection tube Capiject (CJ-AL, TERUMO CORPORATION), and the plasma was separated by centrifugation (4° C., 12,000 rpm, for 2 min), and preserved at −80° C. The rats after blood sampling were euthanized by exsanguination from the caudal vena cava under isoflurane inhalation anesthesia. The measurement of ATX activity in plasma was evaluated using the concentration of choline in the plasma, which was liberated from lysophosphatidylcholine (substrate of ATX) by the lysophospholipase D activity of ATX, as an index. An equal amount of 2× assay buffer (200 mM Tris-HCl pH9.0, 10 mM MgCl2, 1 M NaCl, 0.1% Triton X-100) is added to plasma (12 μL) and reacted at 37° C. for 6 hr. The reaction mixture (10 μL) after reaction for 6 hr and 45 μL of reagent R^1 solution (100 mM Tris-HCl pH 8.0, 0.5 mM TOOS, 10 U/mL peroxidase, 0.01% Triton X-100) were added and blended and absorbance at 550-700 nm was measured and used as a prevalue. As the standard, choline chloride was used. 1 mM choline chloride was diluted with 2× assay buffer up to 7 steps in 2-fold serial dilution, R^1 solution was treated similarly and the absorbance was measured. Furthermore, 15 μL of reagent R^2 solution (100 mM Tris-HCl pH 8.0, 1 mM 4-aminoantipyrine, 10 U/mL choline oxidase, 0.01% Triton X-100) was added, and the mixture was reacted at room temperature for 10 min, and absorbance at 550-700 nm was measured. The choline concentration per reaction time was calculated from the difference between the absorbance after R^2 solution addition and prevalue measured before R^2 addition and used as ATX activity value. inhibitory activity (%)=100×{1−[choline concentration (μM) of test substance administration group/choline concentration (μM) of solvent control group]} <calculating formula>

As to `O=C(O)/C=C/C[C@@H]1COCCN1c1cncc(OCc2ccc(OC(F)(F)F)cc2)c1` [Example 22-1, (2E)-4-[(3R)-4-(5-{[4-(trifluoromethoxy)benzyl]oxy}pyridin-3-yl)morpholin-3-yl]-2-butenoic Acid], the IC50 at human recombinant ATX came to 3 nM. Besides, the “Experimental Example 2 Rat single administration test (inhibitory activity (%) 8 hr after 1 mg/kg oral administration)” value on ATX activity in plasma was 83%.

In the case of `O=C(O)CCCC1CCCN1c1cncc(OCc2ccc(OC(F)(F)F)cc2)c1` (stereo not drawn) [Example 23, 4-[1-(5-{[4-(trifluoromethoxy)benzyl]oxy}pyridin-3-yl)pyrrolidin-2-yl]butanoic Acid], on human recombinant ATX, the IC50 stood at 11 nM. For the same compound, the “Experimental Example 2 Rat single administration test (inhibitory activity (%) 8 hr after 1 mg/kg oral administration)” value on ATX activity in plasma was determined as 83%.

As for `COc1ccc(-c2cnnc(OCc3ccc(OC(F)(F)F)cc3)c2)nc1[C@H]1C[C@@H]1C(=O)O` [Example 25], the half-inhibitory concentration (IC50) on human recombinant ATX was 1 nM. In addition, the “Experimental Example 2 Rat single administration test (inhibitory activity (%) 8 hr after 1 mg/kg oral administration)” value at ATX activity in plasma is reported as 91%.

`COc1ccc(-c2cncc(OCc3ccc(OC(F)(F)F)cc3)c2)nc1[C@H]1C[C@@H]1C(=O)O` [Example 26]: on human recombinant ATX, the IC50 came to 5 nM. Also, on ATX activity in plasma, the “Experimental Example 2 Rat single administration test (inhibitory activity (%) 8 hr after 1 mg/kg oral administration)” value is recorded as 82%.

`COc1ccc(-c2cncc(OCc3ccc(C(F)(F)F)cc3)c2)nc1[C@H]1C[C@@H]1C(=O)O` [Example 29]: the IC50 on human recombinant ATX stood at 3 nM. The “Experimental Example 2 Rat single administration test (inhibitory activity (%) 8 hr after 1 mg/kg oral administration)” value at ATX activity in plasma stood at 80%.

For `COc1ccc(-c2cnnc(OCc3ccc(OC(F)(F)F)cc3)c2)cc1C1CC1C(=O)O` (stereo not drawn) [Example 31], the IC50 at human recombinant ATX came to 4 nM. In addition, the “Experimental Example 2 Rat single administration test (inhibitory activity (%) 8 hr after 1 mg/kg oral administration)” value at ATX activity in plasma was determined as 90%.

As to `O=C(O)c1ccc2c(c1)CCN2c1cncc(OCC2CCN(CC(F)(F)F)CC2)c1` [Example 39], the IC50 at human recombinant ATX came to 7 nM. The “Experimental Example 2 Rat single administration test (inhibitory activity (%) 8 hr after 1 mg/kg oral administration)” value on ATX activity in plasma is 84%.

Take `O=C(O)c1ccc(C2CN(c3cncc(OC[C@H]4CC[C@H](C(F)(F)F)CC4)c3)CCO2)cc1` (stereo partly drawn) [Example 45]: the IC50 on human recombinant ATX was determined as 7 nM. Further, the “Experimental Example 2 Rat single administration test (inhibitory activity (%) 8 hr after 1 mg/kg oral administration)” value at ATX activity in plasma was 81%.

As for `COc1cc(C2CN(c3cncc(OC[C@H]4CC[C@H](C(F)(F)F)CC4)c3)CCO2)ccc1C(=O)O` (stereo partly drawn) [Example 46], the IC50 at human recombinant ATX stood at 2 nM. Also, the “Experimental Example 2 Rat single administration test (inhibitory activity (%) 8 hr after 1 mg/kg oral administration)” value on ATX activity in plasma is 74%.

Turning to `O=C(O)CC[C@H]1CN(c2cncc(OCc3ccc(OC(F)(F)F)cc3F)c2)CCO1` [Example 82], on human recombinant ATX, the IC50 is 19 nM. Besides, the “Experimental Example 2 Rat single administration test (inhibitory activity (%) 8 hr after 1 mg/kg oral administration)” value on ATX activity in plasma came to 89%.

Consider `Cc1cc(OC(F)(F)F)ccc1COc1cncc(N2CCO[C@@H](CCC(=O)O)C2)c1` [Example 83], for which the IC50 on human recombinant ATX came out at 8 nM. Further, the “Experimental Example 2 Rat single administration test (inhibitory activity (%) 8 hr after 1 mg/kg oral administration)” value at ATX activity in plasma came out at 89%.

`O=C(O)CC[C@H]1CN(c2cncc(OCc3ccc(OC(F)(F)F)c(F)c3)c2)CCO1` [Example 84]: at human recombinant ATX, the IC50 turned out to be 21 nM. Moreover, at ATX activity in plasma, the “Experimental Example 2 Rat single administration test (inhibitory activity (%) 8 hr after 1 mg/kg oral administration)” value was 89%.

On to `C[C@@H]1CN(c2cncc(OCc3ccc(OC(F)(F)F)cc3)c2)C[C@H](CCC(=O)O)O1` [Example 87], for which the IC50 at human recombinant ATX worked out at 16 nM. On ATX activity in plasma, the “Experimental Example 2 Rat single administration test (inhibitory activity (%) 8 hr after 1 mg/kg oral administration)” value is recorded as 95%.

`O=C(O)CC1CCCN(c2cncc(OCc3ccc(OC(F)(F)F)cc3)c2)C1` (stereo not drawn) [Example 92]: at human recombinant ATX, the IC50 turned out to be 57 nM. Also, at ATX activity in plasma, the “Experimental Example 2 Rat single administration test (inhibitory activity (%) 8 hr after 1 mg/kg oral administration)” value was determined as 73%.

In the case of `O=C(O)CCC1CN(c2cncc(OCc3ccc(OC(F)(F)F)cc3)c2)CCN1CC(F)(F)F` (stereo not drawn) [Example 93], the IC50 on human recombinant ATX is 39 nM. Further, at ATX activity in plasma, the “Experimental Example 2 Rat single administration test (inhibitory activity (%) 8 hr after 1 mg/kg oral administration)” value stood at 70%.

For the origin of these results see patent US11958812B2, “3, 5-disubstituted pyridine and 3, 5-disubstituted pyridazine derivatives and pharmaceutical use of same” (MITSUBISHI TANABE PHARMA CORPORATION, priority 2018, dated 2024).
